Series [1] in a line: Solution stability experiment of SnADAM-MeOH solution (HPLC purity after storage at room temperature). The conditions noted are these: for Purity of tested samples: room temperature. The series is classed as physicochemical. As for the experimental part:
15.3 ppm, 153 ppm and 306 ppm SnADAM (test sample)-MeOH solutions were prepared and stored at room temperature for three days, and then continuously subjected to HPLC analysis. Meanwhile, a portion of fresh 10-320 ppm SnADAM-MeOH solution is prepared each day to serve as calibration standard sample. The SnADAM chromatographic peak retention time (tR), linear least square regression equation, correlation coefficient (r), purity of the test sample, SD, and RSD of the calibration sample were calculated. Referring to Table 5, the linear correlation coefficients of the fresh calibration standards prepared in three days were all greater than 0.9996. After the test sample was stored at room temperature for three days, the SnADAM retention time RSD=0.31%, and the mean purity RSD=0.05%.

Series [2] is described as follows: Forced degradation experiment of SnADAM (HPLC). The series is classed as physicochemical. The procedure:
Three portions of 0.50 mg SnADAM were dissolved in MeOH solvent, respectively added with 1 M HCl solution, 1 M NaOH solution, and 3% H2O2 solution, and then reacted at room temperature for 30 min. The first two portions of solutions were respectively neutralized with 1 M NaOH and 1 M HCl and then added with suitable amounts of MeOH to dissolve the precipitate, while the third portion of solution was directly diluted with a suitable amount of MeOH after the reaction and then subjected to HPLC analysis. Another portion of 0.50 mg SnADAM was heated in an oven at 80° C. for 30 min, dissolved in MeOH solvent, and then subjected to HPLC analysis. […] Therefore, SnADAM can be separated from the impurities (as shown in FIG. 2) and the degradation products (as shown in FIGS. 3A-3D) without interfering with the quantitative results.

Consider `CCC[CH2][Sn]([CH2]CCC)([CH2]CCC)[c]1ccc(Sc2ccccc2CN(C)C)c(N)c1` [SnADAM, 2-((2-((Dimethylamino)methyl)phenyl)thio)-5-(tri-n-butyltin)-phenylamine], for which the “Purity of tested samples” value is on record as 98.17 ± 0.17 (0.18%, n = 3) in series [1] (SnADAM-MeOH solution 15.3 ppm, day 1); 98.12 ± 0.21 (0.21%, n = 3) in series [1] (SnADAM-MeOH solution 15.3 ppm, day 2); 97.96 ± 0.73 (0.74%, n = 3) in series [1] (SnADAM-MeOH solution 15.3 ppm, day 3); 97.12 ± 0.15 (0.15%, n = 3) in series [1] (SnADAM-MeOH solution 153.0 ppm, day 1); 97.00 ± 0.25 (0.26%, n = 3) in series [1] (SnADAM-MeOH solution 153.0 ppm, day 2); 97.12 ± 0.04 (0.04%, n = 3) in series [1] (SnADAM-MeOH solution 153.0 ppm, day 3). For the same compound, the “Purity of tested samples” value in series [1] (SnADAM-MeOH solution 306.0 ppm, day 1) was 96.77 ± 0.07 (0.07%, n = 3); in series [1] (SnADAM-MeOH solution 306.0 ppm, day 2) it was 96.73 ± 0.06 (0.06%, n = 3); in series [1] (SnADAM-MeOH solution 306.0 ppm, day 3) it was 96.70 ± 0.20 (0.20%, n = 3). Further, the “Stability of SnADAM-MeOH solution (change in purity)” value in series [1] (stored at room temperature for three days) is listed as “no significant change in purity”. In addition, the Forced degradation entry is “two major degradation products FD1 (tR=1.55 min) and FD2 (tR=1.80 min)” in series [2] (1 M HCl solution, room temperature, 30 min); “a major degradation product FD1 (tR=1.55 min)” in series [2] (1 M NaOH solution, room temperature, 30 min); “a major degradation product FD1 (tR=1.55 min) having the same retention time as H2O2” in series [2] (3% H2O2 solution, room temperature, 30 min); “little effect on the degradation” in series [2] (heated in an oven at 80° C. for 30 min).

The values above are taken from patent US8153441B2, “Method for analyzing structure and purity of serotonin transporter imaging agent [123 I] ADAM and precursor SnADAM” (Institute of Nuclear Energy Research Atomic Energy Council, priority 2008, dated 2012).
